Structures can show the parent of a compound that is named as a salt. Values belong to the molecule of their own block, whether it stands above or below them.
Legend:
Type in all cases: physicochemical
[1] = Crystal form conversion on exposure to relative humidity; conditions: room temperature
Text: (§1) It rehydrates and converts back to the mono-HCl salt hydrate when exposed to higher than 75% relative humidity at room temperature. The mono-HCl salt anhydrate Form II can also convert to crystalline mono-HCl salt anhydrate Form I when slurried in Acetone:H2O co-solvent or other co-solvent systems with water activity below 0.57-0.60.
The 1.6-HCl salt anhydrate of Compound A is further characterized by reflections corresponding to d-spacings of 5.03, 4.30, and 4.14 angstroms. The 1.6-HCl salt anhydrate of Compound A is even further characterized by reflections corresponding to d-spacings of 3.93, 3.63, and 3.50 angstroms. The 1.6-HCl salt anhydrate converts to the 1.6-HCl salt hydrate upon exposure to 10-95% relative humidity at room temperature.

[2] = Solubility in 14.6 wt % IPA in DMF; conditions: organic solvent or mixture
Procedure: To prepare the mono-HCl salt anhydrate Form I of Compound A, dissolve 1.00 g of Compound A freebase monohydrate in 7.0 mL (6.65 g) DMF at 55° C. Next, charge 0.05 eq of HCl. Then, charge 0.25 wt % media-milled seed ([…] of API). The solubility of Compound A HCl seed in 14.6 wt % IPA in DMF is <2 mg/mL. Age seed bed for 1 hr. Next, charge 0.92 eq of HCl over 8 hrs (linear charge rate) holding batch at 55. No dispersion is required. Total HCl charge is 0.97 eq. Cool the batch from 55° C. to 22° C. over 1 hr. Hold batch at 22° C. for one hour, then filter.

[3] = Physical stability of the solid on storage under controlled temperature/relative humidity; conditions: for physical stability after storage: 5 months
[4] = Slurry experiment in organic solvent:H2O co-solvent (transition water activity, form conversion)
Procedure: This transition water activity was determined based on slurry experiment in Acetone:H2O, DMF:H2O and THF:H2O co-solvent. […] Crystalline mono-HCl salt hydrate dehydrates and converts to mono-HCl salt anhydrate Form II when exposed to low relative humidity or heated at high temperature.
as §1

SMILES: Cn1cc(-c2cnc3ccc4ccc(CS(=O)(=O)NCc5ccccn5)cc4c(=O)c3c2)cn1 [1.6-HCl salt anhydrate]
relative humidity at which it converts to the 1.6-HCl salt hydrate [1]: 10-95%

SMILES: Cn1cc(-c2cnc3ccc4ccc(CS(=O)(=O)NCc5ccccn5)cc4c(=O)c3c2)cn1 [Compound A HCl seed]
solubility [2]: < 2000 µg/mL

SMILES: Cn1cc(-c2cnc3ccc4ccc(CS(=O)(=O)NCc5ccccn5)cc4c(=O)c3c2)cn1 [Form I]
physical stability after storage ([3]; 40° C./75% relative humidity): physically stable
physical stability after storage ([3]; room temperature/53% relative humidity): physically stable
physical stability after storage ([3]; room temperature/85% relative humidity): physically stable
solid conversion to the mono-HCl salt hydrate ([3]; solid state, on storage): has not been observed

The remaining lines, values ahead:

water activity at which it converts to mono-HCl salt anhydrate Form I ([4]; slurried in Acetone:H2O co-solvent or other co-solvent systems): 0.57-0.60
relative humidity at which it rehydrates and converts back to the mono-HCl salt hydrate [1]: higher than 75%
SMILES: Cn1cc(-c2cnc3ccc4ccc(CS(=O)(=O)NCc5ccccn5)cc4c(=O)c3c2)cn1 [mono-HCl salt anhydrate Form II]

transition water activity above which the mono-HCl salt hydrate is thermodynamically more stable than mono-HCl salt anhydrate Form I ([4]; room temperature or 40° C., slurry in Acetone:H2O, DMF:H2O and THF:H2O co-solvent): 0.57-0.60
SMILES: Cn1cc(-c2cnc3ccc4ccc(CS(=O)(=O)NCc5ccccn5)cc4c(=O)c3c2)cn1 [mono-HCl salt hydrate]

Reference: US20120184744A1, “CRYSTALLINE HYDROCHLORIDE SALTS OF C-MET KINASE INHIBITORS” (priority 2009, published 2012)
